Source: PMC12748989 (Nature Communications, 2025)

Columns and labels:
PBMC = conditions: 12.5 µM

Structure (SMILES)	Average (percentage cell inhibition), Mastoparan PBMC (PBMC)	Average (percentage cell inhibition), Dmastoparan MDA-MB231 12.5uM (MDA-MB-231 cells)
CC[C@H](C)[C@H](N)C(=O)N[C@@H](CC(N)=O)C(=O)N[C@@H](CC(C)C)C(=O)N[C@@H](CCCCN)C(=O)N[C@@H](C)C(=O)N[C@@H](CC(C)C)C(=O)NCC(=O)N[C@@H](C)C(=O)N[C@@H](CC(C)C)C(=O)N[C@@H](C)C(=O)N[C@@H](CCCCN)C(=O)N[C@@H](CCCCN)C(=O)N[C@H](C(=O)N[C@@H](CC(C)C)C(N)=O)[C@@H](C)CC [G7]	11.7718%	49.0864%
CC[C@H](C)[C@H](N)C(=O)N[C@@H](CC(N)=O)C(=O)N[C@@H](CC(C)C)C(=O)N[C@@H](CCCCN)C(=O)N[C@@H](C)C(=O)N[C@@H](CC(C)C)C(=O)N[C@@H](C)C(=O)N[C@@H](C)C(=O)N[C@@H](CC(C)C)C(=O)N[C@@H](C)C(=O)N[C@@H](CCCCN)C(=O)N[C@@H](CCCCN)C(=O)N[C@@H](CCCNC(=N)N)C(=O)N[C@@H](CC(C)C)C(N)=O [R13]	-5.395%	13.2975%
CC[C@H](C)[C@H](N)C(=O)N[C@@H](CC(C)C)C(=O)N[C@@H](CC(C)C)C(=O)N[C@@H](CCCCN)C(=O)N[C@@H](C)C(=O)N[C@@H](CC(C)C)C(=O)N[C@@H](C)C(=O)N[C@@H](C)C(=O)N[C@@H](CC(C)C)C(=O)N[C@@H](C)C(=O)N[C@@H](CCCCN)C(=O)N[C@@H](CCCCN)C(=O)N[C@H](C(=O)N[C@@H](CC(C)C)C(N)=O)[C@@H](C)CC [L2]	76.9101%	95.7612%
CC[C@H](C)[C@H](N)C(=O)N[C@@H](CC(N)=O)C(=O)N[C@@H](CC(C)C)C(=O)N[C@@H](CCCCN)C(=O)N[C@@H](C)C(=O)N[C@@H](CCCCN)C(=O)N[C@@H](C)C(=O)N[C@@H](C)C(=O)N[C@@H](CC(C)C)C(=O)N[C@@H](C)C(=O)N[C@@H](CCCCN)C(=O)N[C@@H](CCCCN)C(=O)N[C@H](C(=O)N[C@@H](CC(C)C)C(N)=O)[C@@H](C)CC [K6]	-1.883%	7.2133%
CC[C@H](C)[C@H](N)C(=O)N[C@@H](CC(N)=O)C(=O)N[C@@H](CC(C)C)C(=O)N[C@@H](CCCCN)C(=O)N[C@@H](C)C(=O)N[C@@H](Cc1ccc(O)cc1)C(=O)N[C@@H](C)C(=O)N[C@@H](C)C(=O)N[C@@H](CC(C)C)C(=O)N[C@@H](C)C(=O)N[C@@H](CCCCN)C(=O)N[C@@H](CCCCN)C(=O)N[C@H](C(=O)N[C@@H](CC(C)C)C(N)=O)[C@@H](C)CC [Y6]	-4.904%	22.8055%
CC[C@H](C)[C@H](N)C(=O)N[C@@H](CC(N)=O)C(=O)N[C@@H](CC(C)C)C(=O)N[C@@H](CCCCN)C(=O)N[C@@H](C)C(=O)N[C@@H](CC(C)C)C(=O)N[C@@H](C)C(=O)N[C@@H](CCC(N)=O)C(=O)N[C@@H](CC(C)C)C(=O)N[C@@H](C)C(=O)N[C@@H](CCCCN)C(=O)N[C@@H](CCCCN)C(=O)N[C@H](C(=O)N[C@@H](CC(C)C)C(N)=O)[C@@H](C)CC [Q8]	5.553%	46.0978%
CC[C@H](C)[C@H](N)C(=O)N[C@@H](CC(N)=O)C(=O)N[C@@H](CC(C)C)C(=O)N[C@@H](CCCCN)C(=O)N[C@@H](C)C(=O)N[C@@H](CC(C)C)C(=O)N[C@@H](C)C(=O)N[C@@H](C)C(=O)N[C@@H](CC(C)C)C(=O)N[C@@H](C)C(=O)N[C@@H](CCCCN)C(=O)N[C@@H](Cc1c[nH]c2ccccc12)C(=O)N[C@H](C(=O)N[C@@H](CC(C)C)C(N)=O)[C@@H](C)CC [W12]	73.0011%	64.637%
CC[C@H](C)[C@H](N)C(=O)N[C@@H](CC(N)=O)C(=O)N[C@@H](CC(C)C)C(=O)N[C@@H](CCCCN)C(=O)N[C@@H](C)C(=O)N[C@@H](CC(C)C)C(=O)N[C@@H](C)C(=O)N[C@@H](CCCNC(=N)N)C(=O)N[C@@H](CC(C)C)C(=O)N[C@@H](C)C(=O)N[C@@H](CCCCN)C(=O)N[C@@H](CCCCN)C(=O)N[C@H](C(=O)N[C@@H](CC(C)C)C(N)=O)[C@@H](C)CC [R8]	4.899%	42.355%
CC[C@H](C)[C@H](N)C(=O)N[C@@H](CC(N)=O)C(=O)N[C@@H](CC(C)C)C(=O)N[C@@H](CCCNC(=N)N)C(=O)N[C@@H](C)C(=O)N[C@@H](CC(C)C)C(=O)N[C@@H](C)C(=O)N[C@@H](C)C(=O)N[C@@H](CC(C)C)C(=O)N[C@@H](C)C(=O)N[C@@H](CCCCN)C(=O)N[C@@H](CCCCN)C(=O)N[C@H](C(=O)N[C@@H](CC(C)C)C(N)=O)[C@@H](C)CC [R4]	0.667%	36.9563%
CC[C@H](C)[C@H](NC(=O)[C@H](CCCCN)NC(=O)[C@H](CCCCN)NC(=O)[C@H](C)NC(=O)[C@H](CC(C)C)NC(=O)[C@H](C)NC(=O)[C@H](C)NC(=O)[C@H](CC(C)C)NC(=O)[C@H](C)NC(=O)[C@H](CCCCN)NC(=O)[C@H](CC(C)C)NC(=O)[C@H](CC(N)=O)NC(=O)[C@@H](N)CCCNC(=N)N)C(=O)N[C@@H](CC(C)C)C(N)=O [R1]	-2.103%	31.3783%
CC[C@H](C)[C@H](N)C(=O)N[C@@H](CC(N)=O)C(=O)N[C@@H](CC(C)C)C(=O)N[C@@H](Cc1c[nH]cn1)C(=O)N[C@@H](C)C(=O)N[C@@H](CC(C)C)C(=O)N[C@@H](C)C(=O)N[C@@H](C)C(=O)N[C@@H](CC(C)C)C(=O)N[C@@H](C)C(=O)N[C@@H](CCCCN)C(=O)N[C@@H](CCCCN)C(=O)N[C@H](C(=O)N[C@@H](CC(C)C)C(N)=O)[C@@H](C)CC [H4]	-2.6725%	21.387%
CC[C@H](C)[C@H](N)C(=O)N[C@@H](CC(N)=O)C(=O)N[C@@H](CC(C)C)C(=O)N[C@@H](CC(C)C)C(=O)N[C@@H](C)C(=O)N[C@@H](CC(C)C)C(=O)N[C@@H](C)C(=O)N[C@@H](C)C(=O)N[C@@H](CC(C)C)C(=O)N[C@@H](C)C(=O)N[C@@H](CCCCN)C(=O)N[C@@H](CCCCN)C(=O)N[C@H](C(=O)N[C@@H](CC(C)C)C(N)=O)[C@@H](C)CC [L4]	15.2128%	34.0791%
CC[C@H](C)[C@H](N)C(=O)N[C@@H](CC(N)=O)C(=O)N[C@@H](CC(C)C)C(=O)N[C@@H](CCCCN)C(=O)N[C@@H](C)C(=O)N[C@@H](CC(C)C)C(=O)N[C@@H](C)C(=O)N[C@@H](C)C(=O)N[C@@H](CC(C)C)C(=O)N[C@@H](C)C(=O)N[C@@H](CCCCN)C(=O)N[C@@H](Cc1ccc(O)cc1)C(=O)N[C@H](C(=O)N[C@@H](CC(C)C)C(N)=O)[C@@H](C)CC [Y12]	22.3509%	47.3973%
CC[C@H](C)[C@H](N)C(=O)N[C@@H](CC(N)=O)C(=O)N[C@@H](CC(C)C)C(=O)N[C@@H](CCCCN)C(=O)N[C@@H](C)C(=O)N[C@@H](CC(C)C)C(=O)N[C@@H](C)C(=O)N[C@@H](C)C(=O)N[C@@H](CC(C)C)C(=O)N[C@@H](C)C(=O)N[C@@H](CCCCN)C(=O)N[C@@H](CCCCN)C(=O)N[C@H](C(=O)N[C@@H](CCC(N)=O)C(N)=O)[C@@H](C)CC [Q14]	1.109%	0.3995%
CC[C@H](C)[C@H](N)C(=O)N[C@@H](CC(N)=O)C(=O)N[C@@H](CC(C)C)C(=O)N[C@@H](CCCCN)C(=O)N[C@@H](CCC(N)=O)C(=O)N[C@@H](CC(C)C)C(=O)N[C@@H](C)C(=O)N[C@@H](C)C(=O)N[C@@H](CC(C)C)C(=O)N[C@@H](C)C(=O)N[C@@H](CCCCN)C(=O)N[C@@H](CCCCN)C(=O)N[C@H](C(=O)N[C@@H](CC(C)C)C(N)=O)[C@@H](C)CC [Q5]	0.7115%	41.3502%
CC[C@H](C)[C@H](N)C(=O)N[C@@H](CC(N)=O)C(=O)N[C@@H](CC(C)C)C(=O)N[C@@H](CCCCN)C(=O)N[C@@H](C)C(=O)N[C@@H](CC(C)C)C(=O)N[C@@H](C)C(=O)N[C@@H](C)C(=O)N[C@@H](CCCCN)C(=O)N[C@@H](C)C(=O)N[C@@H](CCCCN)C(=O)N[C@@H](CCCCN)C(=O)N[C@H](C(=O)N[C@@H](CC(C)C)C(N)=O)[C@@H](C)CC [K9]	-2.726%	18.9586%
CC[C@H](C)[C@H](N)C(=O)N[C@@H](CCCNC(=N)N)C(=O)N[C@@H](CC(C)C)C(=O)N[C@@H](CCCCN)C(=O)N[C@@H](C)C(=O)N[C@@H](CC(C)C)C(=O)N[C@@H](C)C(=O)N[C@@H](C)C(=O)N[C@@H](CC(C)C)C(=O)N[C@@H](C)C(=O)N[C@@H](CCCCN)C(=O)N[C@@H](CCCCN)C(=O)N[C@H](C(=O)N[C@@H](CC(C)C)C(N)=O)[C@@H](C)CC [R2]	6.823%	40.227%
CC[C@H](C)[C@H](N)C(=O)N[C@@H](CC(N)=O)C(=O)N[C@@H](CC(C)C)C(=O)N[C@@H](CCCCN)C(=O)N[C@@H](C)C(=O)N[C@@H](CC(C)C)C(=O)N[C@@H](C)C(=O)N[C@@H](C)C(=O)N[C@@H](CC(C)C)C(=O)N[C@@H](C)C(=O)N[C@@H](CCCCN)C(=O)N[C@@H](CCCCN)C(=O)N[C@@H](CCC(N)=O)C(=O)N[C@@H](CC(C)C)C(N)=O [Q13]	-1.132%	9.2166%
CC[C@H](C)[C@H](N)C(=O)N[C@@H](CC(N)=O)C(=O)N[C@@H](CC(C)C)C(=O)N[C@@H](CCCCN)C(=O)N[C@@H](C)C(=O)N[C@@H](CC(C)C)C(=O)N[C@@H](C)C(=O)N[C@@H](C)C(=O)N[C@@H](CC(C)C)C(=O)N[C@@H](C)C(=O)NCC(=O)N[C@@H](CCCCN)C(=O)N[C@H](C(=O)N[C@@H](CC(C)C)C(N)=O)[C@@H](C)CC [G11]	15.1682%	29.778%
